{
  "source": "patent US20070259329A1",
  "about": "“Anergy-inducing cellular composition” (BioVerde. Inc., priority 2006, published 2007)",
  "key": {"[1]": {"system": "INF-γ production", "experiment": "Cytokine ELISA of one-way MLR supernatants, INF-γ", "assay_type": "cell-based, murine", "conditions": "versus untreated, FIG. 8", "experimental": "In a one-way MLR (FIG. 3), a stimulator splenocyte population (BALB/c) was treated with 30 ppm mitomycin C (MP Biomedicals) in RPMI 1640 (10% FCS) at 37 degree C. for 30 min. to arrest its proliferation before EGCG treatments. The splenocytes were then resuspended with the media solution (RPMI 1640 and 10 mM HEPES) containing 0, 100, and 200 ppm EGCG and incubated at 4-8 degree C. for 1 hour and twice washed with RPMI 1640 (10% FCS) before used for MLR experiments. In a two-way MLR (FIG. 4), both stimulator and responder populations were left capable of proliferating. Each cell population was resuspended in RPMI 1640 (10% FCS) and antibiotics: (penicillin 100 U/ml and streptomycin 100 ppm, BioWhittaker) to a final concentration of 5.0×10^6 cells/ml. The stimulator and responder cells were mixed with a 1:1 ratio (120 μl each) and incubated in triplicate in 96-well plates for 72 hours at […] and 5% CO2. Cell proliferation was estimated by counting with trypan-blue exclusion a small sample of the cells from each MLR well.\nSupernatants from the one-way MLR wells (Example II) were assayed for IL-2 and INF-γ production using cytokine quantification ELISA (e-Bioscience)."}, "[2]": {"system": "pancreatic β-cell", "conditions": "Han (2003); cited from earlier work"}, "[3]": {"system": "C57BI/6 splenocytes", "experiment": "Viability of EGCG-treated splenocytes", "assay_type": "cell-based, murine", "text": "In a two-way MLR (FIG. 4), both stimulator and responder populations were left capable of proliferating. […] (penicillin 100 U/ml and streptomycin 100 ppm, BioWhittaker) to a final concentration of 5.0×10^6 cells/ml. […] Cell proliferation was estimated by counting with trypan-blue exclusion a small sample of the cells from each MLR well. […] Thus, the attenuation of proliferation as indicated in the MLR experiments (Example II) was not largely due to an EGCG's direct toxicity to the splenocytes. […] The experiments were performed as in Example II."}, "[4]": {"target": "T1, CD11a (Mus musculus, UniProt P24063)", "T1 construct": "endogenous in cells; host or cells: murine splenocytes (C57Bl/6)", "T1 sequence (P24063 24-1162)": "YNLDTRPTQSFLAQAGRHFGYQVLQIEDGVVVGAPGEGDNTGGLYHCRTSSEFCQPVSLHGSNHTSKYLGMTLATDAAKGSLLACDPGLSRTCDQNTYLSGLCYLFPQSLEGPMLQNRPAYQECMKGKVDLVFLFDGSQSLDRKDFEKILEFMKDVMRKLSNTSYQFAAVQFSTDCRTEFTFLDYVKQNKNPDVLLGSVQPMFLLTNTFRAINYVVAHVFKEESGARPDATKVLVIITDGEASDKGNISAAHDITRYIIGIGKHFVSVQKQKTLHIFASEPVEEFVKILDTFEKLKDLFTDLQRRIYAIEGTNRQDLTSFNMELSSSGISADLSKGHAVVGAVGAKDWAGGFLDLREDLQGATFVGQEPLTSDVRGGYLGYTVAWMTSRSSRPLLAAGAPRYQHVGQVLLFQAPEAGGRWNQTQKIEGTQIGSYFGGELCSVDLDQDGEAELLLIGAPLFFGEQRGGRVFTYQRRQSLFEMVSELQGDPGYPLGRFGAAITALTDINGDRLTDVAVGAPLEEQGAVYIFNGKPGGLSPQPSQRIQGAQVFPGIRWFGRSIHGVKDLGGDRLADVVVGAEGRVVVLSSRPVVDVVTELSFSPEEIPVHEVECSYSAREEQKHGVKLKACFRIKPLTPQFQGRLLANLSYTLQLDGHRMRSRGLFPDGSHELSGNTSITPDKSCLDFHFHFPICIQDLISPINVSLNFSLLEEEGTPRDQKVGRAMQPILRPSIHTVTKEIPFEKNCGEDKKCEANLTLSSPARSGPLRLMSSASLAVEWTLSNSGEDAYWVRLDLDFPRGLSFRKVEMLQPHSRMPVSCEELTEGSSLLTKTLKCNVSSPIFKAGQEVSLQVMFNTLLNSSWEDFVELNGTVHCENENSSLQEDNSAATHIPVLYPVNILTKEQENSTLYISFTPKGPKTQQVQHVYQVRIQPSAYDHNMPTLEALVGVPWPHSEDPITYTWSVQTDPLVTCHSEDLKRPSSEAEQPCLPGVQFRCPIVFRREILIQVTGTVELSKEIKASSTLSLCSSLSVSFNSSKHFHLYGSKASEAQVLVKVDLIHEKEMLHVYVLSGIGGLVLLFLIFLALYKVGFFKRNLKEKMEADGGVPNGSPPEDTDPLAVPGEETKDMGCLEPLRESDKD", "T1 sequence (P11835 24-771 partner)": "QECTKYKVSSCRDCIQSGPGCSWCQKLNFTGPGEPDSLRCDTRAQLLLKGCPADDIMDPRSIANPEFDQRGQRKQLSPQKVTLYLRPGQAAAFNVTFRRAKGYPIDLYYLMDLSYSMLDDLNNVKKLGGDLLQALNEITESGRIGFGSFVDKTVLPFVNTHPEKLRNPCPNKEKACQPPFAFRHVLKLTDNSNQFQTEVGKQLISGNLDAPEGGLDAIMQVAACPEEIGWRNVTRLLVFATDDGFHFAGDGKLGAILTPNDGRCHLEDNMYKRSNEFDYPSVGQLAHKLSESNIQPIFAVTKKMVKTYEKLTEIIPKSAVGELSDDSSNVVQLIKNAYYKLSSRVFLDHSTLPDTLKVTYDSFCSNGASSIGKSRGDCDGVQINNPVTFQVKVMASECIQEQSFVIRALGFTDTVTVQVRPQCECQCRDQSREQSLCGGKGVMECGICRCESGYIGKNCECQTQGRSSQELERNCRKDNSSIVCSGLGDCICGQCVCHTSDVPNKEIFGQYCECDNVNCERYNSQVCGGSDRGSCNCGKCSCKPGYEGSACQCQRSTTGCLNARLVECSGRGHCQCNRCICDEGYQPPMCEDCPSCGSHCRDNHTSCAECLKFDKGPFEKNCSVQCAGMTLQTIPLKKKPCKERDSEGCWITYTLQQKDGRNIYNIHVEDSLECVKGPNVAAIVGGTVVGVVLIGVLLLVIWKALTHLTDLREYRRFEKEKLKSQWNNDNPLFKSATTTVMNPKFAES", "experiment": "Lymphocyte marker analysis by flow cytometry, CD11a epitope", "assay_type": "cell-based, murine (C57BI/6 splenocytes)", "conditions": "for percent expression of cell surface molecule CD11a: epitope-specific antibody, average of triplicate; for average percent suppression in epitope detection, CD11a: relative to untreated control (0 ppm)", "experimental": "(§1) To evaluate the action of EGCG in rendering cells to become anergy-inducing, murine splenocytes were used as a model system. Splenocytes were collected from BALB/c (H2 K^b) and C57BI/6 (H2 K^d) female mice of 8 to 13 weeks of age in HBSS (BioWhittaker) with 1% FCS. Cells were washed with HBSS (1% FCS) and treated with the media solution which contains RPMI 1640 (Sigma-Aldrich), 10 mM HEPES (Dojindo), and various concentrations of EGCG (98% purity, Roche) described in the examples.\n(§2) Flow cytometric analyses of surface epitopes for the control and EGCG-treated splenocytes were performed using a series of fluorescence-labeled monoclonal anti-mouse CD and MHC and corresponding isotype control antibodies (eBioscience: CD2, CD36, CD4, CD11a, CD25, CD 28, CD 49d and CD80; Pharmingen: TCRαβ and MHC II). Murine splenocytes (C57BI/6) were treated with red blood cell lysis buffer (eBioscience) for 5 min prior to EGCG treatments. Immediately following EGCG-treatments, the splenocytes were washed with RPMI 1640 (10% FCS) and a staining buffer (eBioscience) at 4 degree C. Each splenocyte sample was reconstituted as a 50 μl aliquot in the same staining buffer and subject to antibody labeling. After washing twice the samples with the staining buffer, a minimum of 10,000 events per sample was collected on a Becton Dickinson FACScan flow cytometer."}, "[5]": {"system": "Murine splenocytes (C57BI/6)", "experiment": "Survival of murine splenocytes in the media solution containing EGCG (trypan-blue exclusion)", "assay_type": "cell-based", "conditions": "media with 0, 200, 1000 ppm EGCG, FIGS. 1 and 2", "experimental": "Murine splenocytes (C57BI/6) were suspended in the media solution containing 0, 200, and 1000 ppm EGCG with the cell concentration of 10^6/ml, and 5 ml of this cell suspension was placed in six-well incubation plates and incubated at 4 or 37 degree C. for either 1 hr or 24 hours. Surviving cells were counted by trypan-blue exclusion method and direct observation under a high magnification (800×) by a compound light microscope (Nikon Eclipse TE300). […] (FIGS. 1 and 2). Presented data are the average of three replicates for each treatment."}, "[6]": {"target": "T2, CD3ε (Mus musculus, UniProt P22646)", "T2 construct": "endogenous in cells; host or cells: murine splenocytes (C57Bl/6)", "T2 sequence (P22646 22-189)": "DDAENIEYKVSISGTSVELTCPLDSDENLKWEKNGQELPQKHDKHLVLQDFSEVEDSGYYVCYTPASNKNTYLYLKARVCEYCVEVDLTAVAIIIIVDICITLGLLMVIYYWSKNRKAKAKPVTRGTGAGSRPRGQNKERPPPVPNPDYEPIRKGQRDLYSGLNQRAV", "T2 sequence (P11942 23-182 partner)": "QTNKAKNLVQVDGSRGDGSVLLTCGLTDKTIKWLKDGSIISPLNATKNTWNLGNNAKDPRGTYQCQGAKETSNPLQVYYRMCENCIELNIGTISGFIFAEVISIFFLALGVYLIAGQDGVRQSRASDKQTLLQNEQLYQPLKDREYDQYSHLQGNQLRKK", "T2 sequence (P04235 22-173 partner)": "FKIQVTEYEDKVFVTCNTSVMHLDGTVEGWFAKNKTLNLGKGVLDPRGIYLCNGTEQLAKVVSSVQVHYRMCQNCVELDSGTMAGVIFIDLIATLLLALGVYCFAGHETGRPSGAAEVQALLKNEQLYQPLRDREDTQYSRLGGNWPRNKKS", "T2 sequence (P24161 22-164 partner)": "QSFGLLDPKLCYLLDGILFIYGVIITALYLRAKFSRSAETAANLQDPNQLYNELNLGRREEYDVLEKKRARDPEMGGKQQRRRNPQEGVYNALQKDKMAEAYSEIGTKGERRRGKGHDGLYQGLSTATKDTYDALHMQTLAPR", "experiment": "Lymphocyte marker analysis by flow cytometry, CD3ε epitope", "assay_type": "cell-based, murine (C57BI/6 splenocytes)", "conditions": "for percent expression of cell surface molecule CD3ε: epitope-specific antibody, average of triplicate; for average percent suppression in epitope detection, CD3ε: relative to untreated control (0 ppm)", "experimental": "as §1, §2"}},
  "note": "Marks after values point to notes of the source that are not given here.",
  "data": [
    {"substance": "(−)-epigallocatechin-3-o-gallate [EGCG]", "values": [
      {"measurement": "production of INF-γ", "setting": "[1]", "value": "significantly decreased down to near or below the background levels"},
      {"measurement": "cytokine-induced pancreatic β-cell damage", "setting": "[2]", "value": "suppression"},
      {"measurement": "viability of EGCG-treated splenocytes", "setting": "[3]; stimulated (C57BI/6 co-cultured with BALB/c), 24, 48, 72 hours, FIG. 6", "value": "time-dependent decrease"},
      {"measurement": "viability of EGCG-treated splenocytes", "setting": "[3]; unstimulated (C57BI/6 only), 24, 48, 72 hours culture without EGCG, FIG. 5", "value": "did not significantly decreased"},
      {"measurement": "percent expression of cell surface molecule CD11a", "setting": "[4]; EGCg 100 ppm", "value": 90.1, "unit": "%"},
      {"measurement": "average percent suppression in epitope detection, CD11a", "setting": "[4]; EGCg 100 ppm", "value": "(4.1)** percent"},
      {"measurement": "percent expression of cell surface molecule CD11a", "setting": "[4]; EGCg 200 ppm", "value": 90.0, "unit": "%"},
      {"measurement": "average percent suppression in epitope detection, CD11a", "setting": "[4]; EGCg 200 ppm", "value": "(4.3)** percent"},
      {"measurement": "% survival at 4 degree C. versus 37 degree C.", "setting": "[5]", "value": "greater % survival"},
      {"measurement": "survival of the splenocytes", "setting": "[5]; incubated for 24 hours", "value": "significantly low"},
      {"measurement": "dose dependence of reduction in epitope detection, CD3ε", "setting": "[6]; 100 vs 200 ppm", "value": "dose-dependent reduction"},
      {"measurement": "percent expression of cell surface molecule CD3ε", "setting": "[6]; EGCg 100 ppm", "value": 20.2, "unit": "%"},
      {"measurement": "average percent suppression in epitope detection, CD3ε", "setting": "[6]; EGCg 100 ppm", "value": "(37.5)* percent"},
      {"measurement": "percent expression of cell surface molecule CD3ε", "setting": "[6]; EGCg 200 ppm", "value": 5.6, "unit": "%"},
      {"measurement": "average percent suppression in epitope detection, CD3ε", "setting": "[6]; EGCg 200 ppm", "value": "(82.7)** percent"},
      {"measurement": "blocking of CD3ε by EGCG", "setting": "[6]; summary of TABLE 1", "value": "strongly blocked"}
    ]}
  ]
}
